Experimental data taken from ChEMBL document CHEMBL1201862, “PubChem BioAssay data set” (2004).
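Method: 48-hour compound exposure of cells in 96-well plates, five concentrations, linear interpolation of endpoints. Here, GI50 denotes the concentration required for 50% inhibition of growth.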 Active and inactive are the calls of the source. Rule as the data show it: active = GI50 up to about 1.1 µM and inactive = higher.

Legend:
Experiment in all cases: inhibition of tumour cell growth, NCI panel, 48 h
OVCAR-4 = tested on: OVCAR-4
HOP-62 = tested on: HOP-62
SF-539 = tested on: SF-539
NCI-H460 = tested on: NCI-H460
HCC 2998 = tested on: HCC 2998
MDA-MB-435 = tested on: MDA-MB-435
SK-MEL-2 = tested on: SK-MEL-2
Malme-3M = tested on: Malme-3M
EKVX = tested on: EKVX
U-251 = tested on: U-251
BT-549 = tested on: BT-549
HOP-92 = tested on: HOP-92
K562 = tested on: K562
HCT-15 = tested on: HCT-15
SNB-75 = tested on: SNB-75
COLO 205 = tested on: COLO 205
MDA-N = tested on: MDA-N
CAKI-1 = tested on: CAKI-1
A498 = tested on: A498

Compound	GI50 (OVCAR-4)	GI50 (HOP-62)	GI50 (SF-539)	GI50 (NCI-H460)	GI50 (HCC 2998)	GI50 (MDA-MB-435)	GI50 (SK-MEL-2)	GI50 (Malme-3M)	GI50 (EKVX)	GI50 (U-251)	GI50 (BT-549)	GI50 (HOP-92)	GI50 (K562)	GI50 (HCT-15) [µM]	GI50 (SNB-75)	GI50 (COLO 205)	GI50 (MDA-N)	GI50 (CAKI-1)	GI50 (A498)
CCN(CC)C(=O)Cn1c(-c2ccccc2)cc2ccccc21	66.8 µM (inactive)	57.5 µM (inactive)	34.4 µM (inactive)	36.4 µM (inactive)	78.7 µM (inactive)	34.1 µM (inactive)	72.8 µM (inactive)	80.4 µM (inactive)	16.6 µM (inactive)	40.1 µM (inactive)	33 µM (inactive)	27.7 µM (inactive)	25.8 µM (inactive)	43.3	41.5 µM (inactive)	16.6 µM (inactive)	28.1 µM (inactive)	–	–
CCCCC1(NN=C2CCCCC2)C(=O)N(c2ccccc2)N(c2ccccc2)C1=O	> 100 µM (inactive)	> 100 µM (inactive)	> 100 µM (inactive)	> 100 µM (inactive)	> 100 µM (inactive)	> 100 µM (inactive)	–	–	> 100 µM (inactive)	> 100 µM (inactive)	> 100 µM (inactive)	–	30 µM (inactive)	> 100	> 100 µM (inactive)	> 100 µM (inactive)	> 100 µM (inactive)	> 100 µM (inactive)	–
COc1ccc(NC(=O)/C(CC2=Nc3ccc([N+](=O)[O-])cc3NC2O)=N\NC(=O)C[N+](C)(C)C)c(OC)c1 (stereo not drawn)	80 µM (inactive)	22.2 µM (inactive)	26.5 µM (inactive)	40.5 µM (inactive)	> 100 µM (inactive)	> 100 µM (inactive)	> 100 µM (inactive)	–	54.7 µM (inactive)	40.7 µM (inactive)	> 100 µM (inactive)	72.3 µM (inactive)	–	45.9	> 100 µM (inactive)	43 µM (inactive)	> 100 µM (inactive)	> 100 µM (inactive)	–
O=C1CC(c2ccccc2)n2c(nc3ccccc32)N1 (stereo not drawn)	> 100 µM (inactive)	> 100 µM (inactive)	> 100 µM (inactive)	> 100 µM (inactive)	–	37.8 µM (inactive)	18.9 µM (inactive)	38.1 µM (inactive)	73.5 µM (inactive)	71.8 µM (inactive)	29.2 µM (inactive)	17.9 µM (inactive)	23.7 µM (inactive)	46.8	–	> 100 µM (inactive)	73.5 µM (inactive)	35.3 µM (inactive)	45.5 µM (inactive)
NNC(=O)C(O)C(O)C(=O)NN (stereo not drawn)	> 100 µM (inactive)	> 100 µM (inactive)	–	–	> 100 µM (inactive)	> 100 µM (inactive)	> 100 µM (inactive)	> 100 µM (inactive)	> 100 µM (inactive)	> 100 µM (inactive)	> 100 µM (inactive)	–	36.1 µM (inactive)	> 100	> 100 µM (inactive)	> 100 µM (inactive)	> 100 µM (inactive)	> 100 µM (inactive)	> 100 µM (inactive)
C=C1c2c(n(S(=O)(=O)c3ccccc3)c3ccccc23)[C@@]2(C(=O)OC)CC3C=CC2N1C3	> 100 µM (inactive)	> 100 µM (inactive)	> 100 µM (inactive)	> 100 µM (inactive)	> 100 µM (inactive)	> 100 µM (inactive)	> 100 µM (inactive)	> 100 µM (inactive)	> 100 µM (inactive)	> 100 µM (inactive)	> 100 µM (inactive)	> 100 µM (inactive)	> 100 µM (inactive)	> 100	> 100 µM (inactive)	> 100 µM (inactive)	> 100 µM (inactive)	> 100 µM (inactive)	–
Cc1cn([C@H]2C[C@@H]3[C@@H](COC(CCl)N3O)O2)c(=O)[nH]c1=O (stereo partly drawn)	> 100 µM (inactive)	> 100 µM (inactive)	> 100 µM (inactive)	> 100 µM (inactive)	–	> 100 µM (inactive)	> 100 µM (inactive)	41.3 µM (inactive)	> 100 µM (inactive)	> 100 µM (inactive)	> 100 µM (inactive)	–	> 100 µM (inactive)	> 100	87.9 µM (inactive)	> 100 µM (inactive)	> 100 µM (inactive)	> 100 µM (inactive)	> 100 µM (inactive)
COC(=O)[C@@H]1CC(C(CN)c2cn(C(=O)OC(C)(C)C)c3ccccc23)C(=O)N1C(=O)OC(C)(C)C (stereo partly drawn)	20.9 µM (inactive)	86.7 µM (inactive)	13.8 µM (inactive)	23.6 µM (inactive)	–	21.5 µM (inactive)	22.4 µM (inactive)	22.2 µM (inactive)	19.4 µM (inactive)	38.9 µM (inactive)	31.6 µM (inactive)	–	21.9 µM (inactive)	28.1	6.31 µM (inactive)	17.3 µM (inactive)	20 µM (inactive)	29.2 µM (inactive)	20.1 µM (inactive)
O=C1N/N=C\c2ccc(cc2)OCc2cccc(n2)COc2ccc(cc2)/C=N\NC1=O	> 25 µM (inactive)	> 25 µM (inactive)	> 25 µM (inactive)	> 25 µM (inactive)	–	> 25 µM (inactive)	> 25 µM (inactive)	> 25 µM (inactive)	> 25 µM (inactive)	> 25 µM (inactive)	> 25 µM (inactive)	> 25 µM (inactive)	> 25 µM (inactive)	> 25	14.6 µM (inactive)	> 25 µM (inactive)	> 25 µM (inactive)	–	> 25 µM (inactive)
CCn1c2ccccc2c2cc(NC(=O)c3c(C)[nH]c(=O)[nH]c3=S)ccc21	> 100 µM (inactive)	77.8 µM (inactive)	–	58.3 µM (inactive)	47.6 µM (inactive)	22.6 µM (inactive)	51.3 µM (inactive)	49.4 µM (inactive)	–	31.5 µM (inactive)	31 µM (inactive)	> 100 µM (inactive)	28.8 µM (inactive)	41.2	> 100 µM (inactive)	22.9 µM (inactive)	29.2 µM (inactive)	> 100 µM (inactive)	> 100 µM (inactive)
CC(=O)Nc1ccc(/C=C/[N+](=O)[O-])cc1	2.9 µM (inactive)	7.96 µM (inactive)	2.37 µM (inactive)	7.21 µM (inactive)	–	2.82 µM (inactive)	9.66 µM (inactive)	3.29 µM (inactive)	3.13 µM (inactive)	3.15 µM (inactive)	6.15 µM (inactive)	4.14 µM (inactive)	2 µM (inactive)	2.33	1.5 µM (inactive)	2.53 µM (inactive)	2.24 µM (inactive)	0.573 µM (active)	5.19 µM (inactive)
Oc1ccc2c(c1)-c1c(c3ccccc3n1CCN1CCOCC1)CC2	–	47 µM (inactive)	46 µM (inactive)	> 100 µM (inactive)	–	30.9 µM (inactive)	25 µM (inactive)	31.3 µM (inactive)	53.2 µM (inactive)	42.3 µM (inactive)	43.7 µM (inactive)	–	> 100 µM (inactive)	39.7	27 µM (inactive)	41.7 µM (inactive)	33.7 µM (inactive)	32.6 µM (inactive)	> 100 µM (inactive)
CCOC(=O)N(CC)c1c(C(F)(F)F)cc(-c2ccccc2)[nH]c1=O	30.8 µM (inactive)	73.5 µM (inactive)	–	45.1 µM (inactive)	54.2 µM (inactive)	22.8 µM (inactive)	72.6 µM (inactive)	–	33.5 µM (inactive)	55.2 µM (inactive)	75 µM (inactive)	50.7 µM (inactive)	23.1 µM (inactive)	40.6	–	32.4 µM (inactive)	23.3 µM (inactive)	> 100 µM (inactive)	50.7 µM (inactive)
COc1ccc(C2SCC(=O)N2c2ccc(-c3ccc(-n4c(-c5ccccc5)nc5ccccc5c4=O)cc3)cc2)cc1OC (stereo not drawn)	> 100 µM (inactive)	18 µM (inactive)	30.5 µM (inactive)	32.8 µM (inactive)	–	33.3 µM (inactive)	–	81.8 µM (inactive)	81.8 µM (inactive)	43.8 µM (inactive)	18.5 µM (inactive)	> 100 µM (inactive)	23.3 µM (inactive)	> 100	64.1 µM (inactive)	18.4 µM (inactive)	59.7 µM (inactive)	88.5 µM (inactive)	> 100 µM (inactive)
COc1cc2ccnc3c2c(c1OC)N(C)C=C3	24.5 µM (inactive)	28.3 µM (inactive)	–	14.6 µM (inactive)	16.4 µM (inactive)	31.5 µM (inactive)	23.1 µM (inactive)	–	23.2 µM (inactive)	35.2 µM (inactive)	33 µM (inactive)	–	21.1 µM (inactive)	26.9	33.6 µM (inactive)	20.5 µM (inactive)	19.1 µM (inactive)	21.3 µM (inactive)	36.1 µM (inactive)
O=C1C=CC(=O)[C@H]2C3C=CC(C4C3C3(Cl)C(Cl)=C(Cl)[C@]4(Cl)C3(Cl)Cl)[C@@H]12 (stereo partly drawn)	4.4 µM (inactive)	17.1 µM (inactive)	5.28 µM (inactive)	4.02 µM (inactive)	–	2.51 µM (inactive)	7.76 µM (inactive)	10.6 µM (inactive)	4.02 µM (inactive)	3.46 µM (inactive)	5.96 µM (inactive)	2.18 µM (inactive)	3.14 µM (inactive)	4.11	12.2 µM (inactive)	5.7 µM (inactive)	4.52 µM (inactive)	11.5 µM (inactive)	16 µM (inactive)
